Test results reported in US9085555B2, “Complement pathway modulators and uses thereof” (priority 2011, dated 2015).

The compounds below were run against Factor D (Homo sapiens (Human), UniProt P00746) (assay: biochemical). Conditions: read-out: IC50.
Chain of Factor D (P00746 26-253): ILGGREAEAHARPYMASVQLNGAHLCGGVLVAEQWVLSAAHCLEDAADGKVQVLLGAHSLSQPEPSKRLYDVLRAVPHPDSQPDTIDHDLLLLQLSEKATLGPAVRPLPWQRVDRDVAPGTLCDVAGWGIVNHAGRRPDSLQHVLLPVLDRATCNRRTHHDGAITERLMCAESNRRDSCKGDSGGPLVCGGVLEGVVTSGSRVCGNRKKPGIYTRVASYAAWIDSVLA
Assay type: biochemical
Work on CC(=O)c1cn(CC(=O)N2C[C@H](F)C[C@H]2C(=O)NCc2cccc(Cl)c2F)c2ccc(OCc3ccccc3)cc12 [Example 508, (2S,4R)-1-[2-(3-Acetyl-5-benzyloxy-indol-1-yl)-acetyl]-4-fluoro-pyrrolidine-2-carboxylic acid 3-chloro-2-fluoro-benzylamide] yielded an IC50 of 12 nM. Compound CC(=O)c1cn(CC(=O)N2C[C@H](F)C[C@H]2C(=O)NCc2cccc(Cl)c2F)c2cc(OC(F)(F)F)ccc12 [Example 509, (2S,4R)-1-[2-(3-Acetyl-6-trifluoromethoxy-indol-1-yl)-acetyl]-4-fluoro-pyrrolidine-2-carboxylic acid 3-chloro-2-fluoro-benzylamide] has an IC50 of 58 nM. In the case of CC(=O)c1cn(CC(=O)N2[C@@H]3C[C@@H]3C[C@H]2C(=O)NCc2cccc(Cl)c2F)c2ccccc12 [Example 510, (1R,3S,5R)-2-[2-(3-Acetyl-indol-1-yl)-acetyl]-2-aza-bicyclo[3.1.0]hexane-3-carboxylic acid 3-chloro-2-fluoro-benzylamide], the IC50 is reported as 16 nM. With CC(=O)c1cn(CC(=O)N2C[C@](C)(F)C[C@H]2C(=O)NCc2cccc(Cl)c2F)c2ccccc12 [Example 511, (2S,4R)-1-[2-(3-Acetyl-indol-1-yl)-acetyl]-4-fluoro-4-methyl-pyrrolidine-2-carboxylic acid 3-chloro-2-fluoro-benzylamide] the IC50 was 71 nM. Compound CC(=O)c1cn(CC(=O)N2[C@@H]3CC[C@@H](C3)[C@H]2C(=O)NCc2cccc(Cl)c2F)c2ccccc12 [Example 512, (1R,3S,4S)-2-[2-(3-Acetyl-indol-1-yl)-acetyl]-2-aza-bicyclo[2.2.1]heptane-3-carboxylic acid 3-chloro-2-fluoro-benzylamide] has an IC50 of 411 nM. For CC(=O)c1cn(CC(=O)N2CCS[C@H]2C(=O)NCc2cccc(Cl)c2F)c2ncccc12 [Example 513, (S)-3-[2-(3-Acetyl-pyrrolo[2,3-b]pyridin-1-yl)-acetyl]-thiazolidine-2-carboxylic acid 3-chloro-2-fluoro-benzylamide], the IC50 was 193 nM. Compound CC(=O)c1cn(CC(=O)N2C[C@H](F)C[C@H]2C(=O)Nc2cccc(OC(F)(F)F)c2F)c2ccccc12 [Example 514, (2S,4R)-1-[2-(3-Actyl-indol-1-yl)-acetyl]-4-fluoro-pyrrolidine-2-carboxylic acid (2-fluoro-3-trifluoromethoxy-phenyl)-amide] has an IC50 of 95 nM. CC(=O)c1cn(CC(=O)N2[C@@H]3C[C@@H]3C[C@H]2C(=O)Nc2cc(Br)cc(-c3nnn[nH]3)c2)c2ccccc12 [Example 515, (1R,3S,5R)-2-[2-(3-Acetyl-indol-1-yl)-acetyl]-2-aza-bicyclo[3.1.0]hexane-3-carboxylic acid [3-bromo-5-(2H-tetrazol-5-yl)-phenyl]-amide] showed an IC50 of 268 nM. CC(=O)c1cn(CC(=O)N2C[C@H](F)C[C@H]2C(=O)NCc2cccc(Br)c2F)c2ccccc12 [Example 516, (2S,4R)-1-[2-(3-Acetyl-indol-1-yl)-acetyl]-4-fluoro-pyrrolidine-2-carboxylic acid 3-bromo-2-fluoro-benzyl amide] was tested, and the IC50 was 8 nM. Compound NC(=O)c1cn(CC(=O)N2C[C@H](F)C[C@H]2C(=O)Nc2cccc(C(F)(F)F)c2F)c2ccccc12 [Example 517, 1-{2-[(2S,4R)-4-Fluoro-2-(2-fluoro-3-trifluoromethyl-phenylcarbamoyl)-pyrrolidin-1-yl]-2-oxo-ethyl}-1H-indole-3-carboxylic acid amide] has an IC50 of 1460 nM. For CC(=O)c1cn(CC(=O)N2C[C@H](F)C[C@H]2C(=O)N[C@H](CO)c2cccc(Cl)c2F)c2ccccc12 [Example 518, (2S,4R)-1-[2-(3-Acetyl-indol-1-yl)-acetyl]-4-fluoro-pyrrolidine-2-carboxylic acid [(S)-1-(3-chloro-2-fluoro-phenyl)-2-hydroxy-ethyl]-amide], the IC50 was 41 nM. With CNC(=O)c1cn(CC(=O)N2C[C@H](F)C[C@H]2C(=O)NCc2cccc(Cl)c2F)c2ccccc12 [Example 519, 1-{2-[(2S,4R)-2-(3-Chloro-2-fluoro-benzylcarbamoyl)-4-fluoro-pyrrolidin-1-yl]-2-oxo-ethyl}-1H-indole-3-carboxylic acid methylamide] the IC50 was 722 nM. For CO[C@H]1[C@@H](C(=O)NCc2cccc(Cl)c2F)N(C(=O)Cn2cc(C(C)=O)c3cccnc32)C[C@@H]1F [Example 520, (2S,3S,4S)-1-[2-(3-Acetyl-pyrrolo[2,3-b]pyridin-1-yl)-acetyl]-4-fluoro-3-methoxy-pyrrolidine-2-carboxylic acid 3-chloro-2-fluoro-benzylamide], the IC50 was 22 nM. With CC(=O)c1cn(CC(=O)N2C[C@H](F)C[C@H]2C(=O)NCc2cc(-c3nnn[nH]3)cc(Cl)c2F)c2ccccc12 [Example 521, (2S,4R)-1-[2-(3-Acetyl-indol-1-yl)-acetyl]-4-fluoro-pyrrolidine-2-carboxylic acid 3-chloro-2-fluoro-5-(1H-tetrazol-5-yl)-benzylamide] the IC50 was 37 nM. CC(=O)c1cn(CC(=O)N2[C@@H]3C[C@@H]3C[C@H]2C(=O)N[C@H](CN(C)C)c2cccc(Cl)c2F)c2ccccc12 [Example 522, (1R,3S,5R)-2-[2-(3-Acetyl-indol-1-yl)-acetyl]-2-aza-bicyclo[3.1.0]hexane-3-carboxylic acid [(S)-1-(3-chloro-2-fluoro-phenyl)-2-dimethylamino-ethyl]-amide] was tested, and the IC50 was 415 nM. CC(=O)c1cn(CC(=O)N2[C@@H]3C[C@@H]3C[C@H]2C(=O)NCc2cccc(Cl)c2F)c2ccncc12 [Example 524, (1R,3S,5R)-2-[2-(3-Acetyl-pyrrolo[3,2-c]pyridin-1-yl)-acetyl]-2-aza-bicyclo[3.1.0]hexane-3-carboxylic acid 3-chloro-2-fluoro-benzylamide] gave an IC50 of 64 nM. Compound CC(=O)c1cn(CC(=O)N2[C@@H]3C[C@@H]3C[C@H]2C(=O)NCc2cc(-c3nnn[nH]3)cc(Cl)c2F)c2ccccc12 [Example 525, (1R,3S,5R)-2-[2-(3-Acetyl-indol-1-yl)-acetyl]-2-aza-bicyclo[3.1.0]hexane-3-carboxylic acid 3-chloro-2-fluoro-5-(1H-tetrazol-5-yl)-benzylamide] has an IC50 of 36 nM. Compound COC(=O)c1ccc2c(C(C)=O)cn(CC(=O)N3[C@@H]4C[C@@H]4C[C@H]3C(=O)NCc3cccc(Cl)c3F)c2c1 [Example 526, 3-Acetyl-1-{2-[(1R,3S,5R)-3-(3-chloro-2-fluoro-benzylcarbamoyl)-2-aza-bicyclo[3.1.0]hex-2-yl]-2-oxo-ethyl}-1H-indole-6-carboxylic acid methyl ester] has an IC50 of 54 nM. CC(=O)c1cn(CC(=O)N2[C@@H]3C[C@@H]3C[C@H]2C(=O)NCc2cc(C#N)cc(Cl)c2F)c2ccccc12 [Example 527, (1R,3S,5R)-2-[2-(3-Acetyl-indol-1-yl)-acetyl]-2-aza-bicyclo[3.1.0]hexane-3-carboxylic acid 3-chloro-5-cyano-2-fluoro-benzylamide] showed an IC50 of 483 nM. NC(=O)c1cn(CC(=O)N2C[C@H](F)C[C@H]2C(=O)NCc2cccc(Cl)c2F)c2cc(OC(F)F)ccc12 [Example 528, 1-{2-[(2S,4R)-2-(3-Chloro-2-fluoro-benzylcarbamoyl)-4-fluoro-pyrrolidin-1-yl]-2-oxo-ethyl}-6-difluoromethoxy-1H-indole-3-carboxylic acid amide] was tested, and the IC50 was 75 nM. For CC(=O)c1cn(CC(=O)N2C[C@](C)(F)C[C@H]2C(=O)NCc2cccc(Cl)c2F)c2ncccc12 [Example 530, (2S,4R)-1-[2-(3-Acetyl-pyrrolo[2,3-b]pyridin-1-yl)-acetyl]-4-fluoro-4-methyl-pyrrolidine-2-carboxylic acid 3-chloro-2-fluoro-benzylamide], the IC50 was 72 nM. For CC(=O)c1cn(CC(=O)N2C[C@H](F)C[C@H]2C(=O)NCc2cccc(Cl)c2F)c2cc(Cl)ccc12 [Example 531, (2S,4R)-1-[2-(3-Acetyl-6-chloro-indol-1-yl)-acetyl]-4-fluoro-pyrrolidine-2-carboxylic acid 3-chloro-2-fluoro-benzylamide], the IC50 was 11 nM. CC(=O)c1cn(CC(=O)N2[C@@H]3C[C@@H]3C[C@H]2C(=O)NCc2cccc(Cl)c2F)c2nc(C#N)ccc12 [Example 532, (1R,3S,5R)-2-[2-(3-Acetyl-6-cyano-pyrrolo[2,3-b]pyridin-1-yl)-acetyl]-2-aza-bicyclo[3.1.0] hexane-3-carboxylic acid 3-chloro-2-fluoro-benzylamide] was tested, and the IC50 was 223 nM. COC[C@@H](NC(=O)[C@@H]1C[C@H]2C[C@H]2N1C(=O)Cn1cc(C(C)=O)c2cccnc21)c1cccc(Cl)c1F [Example 533, (1R,3S,5R)-2-[2-(3-Acetyl-pyrrolo[2,3-b]pyridin-1-yl)-acetyl]-2-aza-bicyclo[3.1.0] hexane-3-carboxylic acid [(S)-1-(3-chloro-2-fluoro-phenyl)-2-methoxy-ethyl]-amide] was tested, and the IC50 was 34 nM. COC[C@@H](NC(=O)[C@@H]1C[C@H]2C[C@H]2N1C(=O)Cn1cc(C(C)=O)c2ccncc21)c1cccc(Cl)c1F [Example 535, (1R,3S,5R)-2-[2-(3-Acetyl-pyrrolo[2,3-c]pyridin-1-yl)-acetyl]-2-aza-bicyclo[3.1.0] hexane-3-carboxylic acid [(S)-1-(3-chloro-2-fluoro-phenyl)-2-methoxy-ethyl]-amide] was tested, and the IC50 was 62 nM. For CC(=O)c1cn(CC(=O)N2[C@@H]3C[C@@H]3C[C@H]2C(=O)NCc2cccc(Cl)c2F)c2cc(OCc3ccccc3)ccc12 [Example 536, (1R,3S,5R)-2-[2-(3-Acetyl-6-benzyloxy-indol-1-yl)-acetyl]-2-aza-bicyclo[3.1.0]hexane-3-carboxylic acid 3-chloro-2-fluoro-benzylamide], the IC50 was 121 nM. For CC(=O)c1cn(CC(=O)N2C[C@H]3C[C@H]3[C@H]2C(=O)NCc2cccc(Cl)c2F)c2ccncc12 [Example 537, (1R,2S,5S)-3-[2-(3-Acetyl-pyrrolo[3,2-c]pyridin-1-yl)-acetyl]-3-aza-bicyclo[3.1.0] hexane-2-carboxylic acid 3-chloro-2-fluoro-benzylamide], the IC50 was 609 nM. Work on CC(=O)c1cn(CC(=O)N2C[C@H]3C[C@H]3[C@H]2C(=O)NCc2cccc(Cl)c2F)c2ncccc12 [Example 538, (1R,2S,5S)-3-[2-(3-Acetyl-pyrrolo[2,3-b]pyridin-1-yl)-acetyl]-3-aza-bicyclo[3.1.0] hexane-2-carboxylic acid 3-chloro-2-fluoro-benzylamide] yielded an IC50 of 911 nM.
